The results in this text go back to ChEMBL document CHEMBL1136669, “Synthesis of aza and oxaglutamyl-p-nitroanilide derivatives and their kinetic studies with gamma-glutamyltranspeptidase” (Bioorg Med Chem Lett, 2003).

In the test the target is Glutathione hydrolase 1 proenzyme (Rattus norvegicus, UniProt P07314). Put plainly: Compound was tested for the competitive inhibition of rat kidney gamma-glutamyltranspeptidase (gamma-GGT).
Sequence of Glutathione hydrolase 1 proenzyme (P07314 1-379 limits assumed): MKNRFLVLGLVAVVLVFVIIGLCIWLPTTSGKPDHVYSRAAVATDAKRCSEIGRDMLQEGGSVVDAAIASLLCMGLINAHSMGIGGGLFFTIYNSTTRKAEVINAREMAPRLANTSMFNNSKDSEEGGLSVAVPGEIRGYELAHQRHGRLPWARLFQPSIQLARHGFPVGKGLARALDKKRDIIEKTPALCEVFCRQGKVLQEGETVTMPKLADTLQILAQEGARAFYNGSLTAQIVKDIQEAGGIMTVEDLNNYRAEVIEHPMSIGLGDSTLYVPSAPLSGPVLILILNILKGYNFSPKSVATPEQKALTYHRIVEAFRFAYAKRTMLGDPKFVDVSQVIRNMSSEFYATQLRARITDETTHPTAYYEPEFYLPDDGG
Sequence of Glutathione hydrolase 1 proenzyme (P07314 380-568 limits assumed): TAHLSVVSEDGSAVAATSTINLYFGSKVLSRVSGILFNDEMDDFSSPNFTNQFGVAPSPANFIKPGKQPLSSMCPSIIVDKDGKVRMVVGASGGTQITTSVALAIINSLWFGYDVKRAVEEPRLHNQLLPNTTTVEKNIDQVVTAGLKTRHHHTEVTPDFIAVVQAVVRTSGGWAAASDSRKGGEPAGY

Molecule `Cl.N[C@@H](CNC(=O)Nc1ccc([N+](=O)[O-])cc1)C(=O)O` came in with a Ki comp of 3.8 mM.
